Reference: PMC10141580, “Cyclic Dichalcogenides Extend the Reach of Bioreductive Prodrugs to Harness Thiol/Disulfide Oxidoreductases: Applications to seco-Duocarmycins Targeting the Thioredoxin System” (ACS Central Science, 2023)
Read-outs that look alike come from different tables or passages of the source.

Test system: NCI-60 standardized human tumor cell line panel
Test: cells
Format: cell-based
[1] = cell line A549/ATCC (LC:A549/ATCC), TMI sheet
[2] = cell line BT-549 (BR:BT-549), TMI sheet
[3] = cell line CCRF-CEM (LE:CCRF-CEM), TMI sheet
[4] = cell line COLO 205 (CO:COLO 205), TMI sheet
[5] = cell line EKVX (LC:EKVX), TMI sheet
[6] = cell line HCC-2998 (CO:HCC-2998), TMI sheet
[7] = cell line HCT-15 (CO:HCT-15), TMI sheet
[8] = cell line HCT-116 (CO:HCT-116), TMI sheet
[9] = cell line HL-60(TB) (LE:HL-60(TB)), TMI sheet
[10] = cell line HOP-62 (LC:HOP-62), TMI sheet
[11] = cell line HOP-92 (LC:HOP-92), TMI sheet
[12] = cell line HT29 (CO:HT29), TMI sheet
[13] = cell line K-562 (LE:K-562), TMI sheet
[14] = cell line KM12 (CO:KM12), TMI sheet
[15] = cell line LOX IMVI (ME:LOX IMVI), TMI sheet
[16] = cell line M14 (ME:M14), TMI sheet
[17] = cell line MALME-3M (ME:MALME-3M), TMI sheet
[18] = cell line MCF7 (BR:MCF7), TMI sheet
[19] = cell line MDA-MB-435 (ME:MDA-MB-435), TMI sheet
[20] = cell line MOLT-4 (LE:MOLT-4), TMI sheet
[21] = cell line NCI-H23 (LC:NCI-H23), TMI sheet
[22] = cell line NCI-H226 (LC:NCI-H226), TMI sheet
[23] = cell line RPMI-8226 (LE:RPMI-8226), TMI sheet
[24] = cell line SF-539 (CNS:SF-539), TMI sheet
[25] = cell line SK-MEL-5 (ME:SK-MEL-5), TMI sheet
[26] = cell line SK-MEL-28 (ME:SK-MEL-28), TMI sheet
[27] = cell line SNB-19 (CNS:SNB-19), TMI sheet
[28] = cell line SR (LE:SR), TMI sheet
[29] = cell line SW-620 (CO:SW-620), TMI sheet
[30] = cell line T-47D (BR:T-47D), TMI sheet
[31] = cell line U251 (CNS:U251), TMI sheet
[32] = cell line UACC-62 (ME:UACC-62), TMI sheet
[33] = cell line UACC-257 (ME:UACC-257), TMI sheet

## COc1cc2cc(C(=O)N3CC(CCl)c4c3cc(OC(=O)N3CCN(C)C5CSSCC53)c3ccccc43)[nH]c2c(OC)c1OC (mixture of isomers) [Me-SS66C-CBI-TMI]
U251, read-out: GI50
  GI50: 140 nM
UACC-62, read-out: GI50
  GI50: 150 nM
UACC-257, read-out: GI50
  GI50: 500 nM
[1]
  NCI-60 screening: Log(GI50): -6.74
  NCI-60 screening: Log(RedIndex): 1.04
[2]
  NCI-60 screening: Log(GI50): -6.78
  NCI-60 screening: Log(RedIndex): 0.98
Cell line BT-549 (BR:BT-549), TMI sheet, read-out: NCI-60 screening: Raw GI50
  GI50: 170 nM
[3]
  NCI-60 screening: Log(GI50): -6.98
  NCI-60 screening: Log(RedIndex): 0.98
[4]
  NCI-60 screening: Log(GI50): -6.48
  NCI-60 screening: Log(RedIndex): 0.62
[5]
  NCI-60 screening: Log(GI50): -6.64
  NCI-60 screening: Log(RedIndex): 0.93
Cell line EKVX (LC:EKVX), TMI sheet, read-out: NCI-60 screening: Raw GI50
  GI50: 230 nM
[6]
  NCI-60 screening: Log(GI50): -6.84
  NCI-60 screening: Log(RedIndex): 1.02
Cell line HCC-2998 (CO:HCC-2998), TMI sheet, read-out: NCI-60 screening: Raw GI50
  GI50: 140 nM
[7]
  NCI-60 screening: Log(GI50): -6.61
  NCI-60 screening: Log(RedIndex): 0.85
Cell line HCT-15 (CO:HCT-15), TMI sheet, read-out: NCI-60 screening: Raw GI50
  GI50: 250 nM
[8]
  NCI-60 screening: Log(GI50): -6.73
  NCI-60 screening: Log(RedIndex): 0.9
[9]
  NCI-60 screening: Log(GI50): -7.28
  NCI-60 screening: Log(RedIndex): 1.16
[10]
  NCI-60 screening: Log(GI50): -6.69
  NCI-60 screening: Log(RedIndex): 0.46
Cell line HOP-62 (LC:HOP-62), TMI sheet, read-out: NCI-60 screening: Raw GI50
  GI50: 200 nM
[11]
  NCI-60 screening: Log(GI50): -6.62
  NCI-60 screening: Log(RedIndex): 1.02
Cell line HOP-92 (LC:HOP-92), TMI sheet, read-out: NCI-60 screening: Raw GI50
  GI50: 240 nM
[12]
  NCI-60 screening: Log(GI50): -6.65
  NCI-60 screening: Log(RedIndex): 0.83
Cell line HT29 (CO:HT29), TMI sheet, read-out: NCI-60 screening: Raw GI50
  GI50: 230 nM
[13]
  NCI-60 screening: Log(GI50): -6.4
  NCI-60 screening: Log(RedIndex): 0.23
[14]
  NCI-60 screening: Log(GI50): -5.96
  NCI-60 screening: Log(RedIndex): 0.27
[15]
  NCI-60 screening: Log(GI50): -6.78
  NCI-60 screening: Log(RedIndex): 0.82
Cell line LOX IMVI (ME:LOX IMVI), TMI sheet, read-out: NCI-60 screening: Raw GI50
  GI50: 170 nM
[16]
  NCI-60 screening: Log(GI50): -6.6
  NCI-60 screening: Log(RedIndex): 0.78
Cell line M14 (ME:M14), TMI sheet, read-out: NCI-60 screening: Raw GI50
  GI50: 250 nM
[17]
  NCI-60 screening: Log(GI50): -6.67
  NCI-60 screening: Log(RedIndex): 0.87
[18]
  NCI-60 screening: Log(GI50): -7.55
  NCI-60 screening: Log(RedIndex): 1.05
Cell line MCF7 (BR:MCF7), TMI sheet, read-out: NCI-60 screening: Raw GI50
  GI50: 28 nM
[19]
  NCI-60 screening: Log(GI50): -6.08
  NCI-60 screening: Log(RedIndex): 0.33
[20]
  NCI-60 screening: Log(GI50): -7.16
  NCI-60 screening: Log(RedIndex): 0.93
[21]
  NCI-60 screening: Log(GI50): -7.34
  NCI-60 screening: Log(RedIndex): 1.02
[22]
  NCI-60 screening: Log(GI50): -5.99
  NCI-60 screening: Log(RedIndex): 0.15
[23]
  NCI-60 screening: Log(GI50): -6.79
  NCI-60 screening: Log(RedIndex): 0.96
Cell line RPMI-8226 (LE:RPMI-8226), TMI sheet, read-out: NCI-60 screening: Raw GI50
  GI50: 160 nM
Cell line SF-268 (CNS:SF-268), TMI sheet
  NCI-60 screening: Log(GI50): -6.76
Cell line SF-268 (CNS:SF-268), TMI sheet, read-out: NCI-60 screening: Raw GI50
  GI50: 170 nM
Cell line SF-295 (CNS:SF-295), TMI sheet
  NCI-60 screening: Log(GI50): -6.88
Cell line SF-295 (CNS:SF-295), TMI sheet, read-out: NCI-60 screening: Raw GI50
  GI50: 130 nM
[24]
  NCI-60 screening: Log(GI50): -6.76
  NCI-60 screening: Log(RedIndex): 0.88
Cell line SF-539 (CNS:SF-539), TMI sheet, read-out: NCI-60 screening: Raw GI50
  GI50: 170 nM
[25]
  NCI-60 screening: Log(GI50): -6.78
  NCI-60 screening: Log(RedIndex): 0.99
Cell line SK-MEL-5 (ME:SK-MEL-5), TMI sheet, read-out: NCI-60 screening: Raw GI50
  GI50: 170 nM
[26]
  NCI-60 screening: Log(GI50): -6.58
  NCI-60 screening: Log(RedIndex): 1.14
Cell line SK-MEL-28 (ME:SK-MEL-28), TMI sheet, read-out: NCI-60 screening: Raw GI50
  GI50: 260 nM
[27]
  NCI-60 screening: Log(GI50): -6.65
  NCI-60 screening: Log(RedIndex): 1
[28]
  NCI-60 screening: Log(GI50): -7.43
  NCI-60 screening: Log(RedIndex): 0.87
[29]
  NCI-60 screening: Log(GI50): -6.58
  NCI-60 screening: Log(RedIndex): 0.85
Cell line SW-620 (CO:SW-620), TMI sheet, read-out: NCI-60 screening: Raw GI50
  GI50: 260 nM
[30]
  NCI-60 screening: Log(GI50): -6.54
  NCI-60 screening: Log(RedIndex): 0.82
[31]
  NCI-60 screening: Log(GI50): -6.86
  NCI-60 screening: Log(RedIndex): 1.04
Cell line U251 (CNS:U251), TMI sheet, read-out: NCI-60 screening: Raw GI50
  GI50: 140 nM
[32]
  NCI-60 screening: Log(GI50): -6.83
  NCI-60 screening: Log(RedIndex): 1.02
Cell line UACC-62 (ME:UACC-62), TMI sheet, read-out: NCI-60 screening: Raw GI50
  GI50: 150 nM
[33]
  NCI-60 screening: Log(GI50): -6.3
  NCI-60 screening: Log(RedIndex): 0.6
Mean over NCI cell lines, vs P-CC60
  mean reductive index: ca. 7
read-out: NCI-60 screening: Raw GI50
  GI50: 240 nM
